Measurements from US20100160411A1, “BENZOXATHIINE AND BENZOXATHIOLE DERIVATIVES AND USES THEREOF” (Wyeth, priority 2006, published 2010).
Like-named read-outs stand apart in the source and are kept apart here.

Experiments:
[1] = target: T1, human 5-hydroxytryptamine-2C (h5-HT2C) receptor (Homo sapiens, UniProt P28335); experiment: [125I]DOI binding to membranes of CHO cells expressing the h5-HT2C receptor
T1 construct: expressed in transfected cells; host or cells: CHO (Chinese Hamster Ovary) cells; membrane preparation
T1 sequence (P28335 33-458): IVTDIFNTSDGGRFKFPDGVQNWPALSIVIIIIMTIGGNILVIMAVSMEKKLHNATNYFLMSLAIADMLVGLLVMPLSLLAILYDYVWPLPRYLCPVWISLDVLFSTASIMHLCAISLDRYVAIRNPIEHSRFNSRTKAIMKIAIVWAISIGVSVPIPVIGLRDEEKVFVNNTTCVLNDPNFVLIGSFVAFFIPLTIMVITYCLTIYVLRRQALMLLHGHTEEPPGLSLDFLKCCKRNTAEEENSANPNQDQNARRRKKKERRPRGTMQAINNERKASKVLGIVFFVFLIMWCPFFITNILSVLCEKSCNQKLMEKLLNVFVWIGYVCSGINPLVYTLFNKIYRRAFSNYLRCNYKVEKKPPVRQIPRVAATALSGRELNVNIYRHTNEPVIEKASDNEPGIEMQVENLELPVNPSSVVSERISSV

human 5-HT2C receptor = target: T2, human 5-HT2C receptor (Homo sapiens, UniProt P28335); experiment: calcium mobilization (FLIPR) in CHO cells stably expressing the human 5-HT2C receptor; assay type: cell-based
T2 sequence (P28335 33-458): T1 sequence (P28335 33-458)

[2] = read-out: 5-HT2C Binding Ki avg

In the case of `NCC1CSc2cc(F)cc(-c3c(Cl)cccc3Cl)c2O1` (stereo not shown) [Example 1, C-[8-(2,6-Dichloro-phenyl)-6-fluoro-2,3-dihydro-benzo[1,4]oxathiin-2-yl]-methylamine], the Ki [1, 2] is reported as 0.535 nM, the Emax (human 5-HT2C receptor; CHO, read-out: 5-HT2C Function EMax (%)) is reported as 70% and the EC50 (human 5-HT2C receptor; calcium mobilization, CHO cells, FLIPR, read-out: 5-HT2C Function EC50) is reported as 356 nM.
`NCC1CS(=O)(=O)c2cc(F)cc(-c3c(Cl)cccc3Cl)c2O1` (stereo not shown) [Example 3, C-[8-(2,6-Dichloro-phenyl)-6-fluoro-4,4-dioxo-3,4-dihydro-2H-4lambda*6*-benzo[1,4]oxathiin-2-yl]-methylamine] showed a Ki [1, 2] of 11.7 nM.
In the case of `NCC1C[S+]([O-])c2cc(F)cc(-c3c(Cl)cccc3Cl)c2O1` (stereo not shown) [Example 2, C-[8-(2,6-Dichloro-phenyl)-6-fluoro-4-oxo-3,4-dihydro-2H-4lambda*4*-benzo[1,4]oxathiin-2-yl]-methylamine], the Ki [1, 2] is reported as 388 nM.
For `CSc1ccc2c(c1)C(N1CCN(C)CC1)Cc1ccccc1S2` (stereo not shown) [Methiothepin, reference compound], the Ki ([1]; reference compounds, 95% confidence interval in parentheses, [125I]DOI radioligand, CHO cell membranes, read-out: Ki) was 4.6 nM.
`COc1cc(CC(C)N)c(OC)cc1I` (stereo not shown) [[125I] DOI, reference compound] gave a Kd ([1]; saturation binding with increasing concentrations of [125I] DOI, read-out: dissociation constant, KD) of 0.4 nM.
